Entries after “also recorded” stand apart in the source; their conditions may differ.
Columns and labels:
[1] = system: carrageenan-induced paw edema; experiment: Carrageenan-induced paw edema in rats; type: in vivo, sprague dawley rats
Description: Dexamethasone was given by lavage one hour before carrageenan. […] (1 mg/kg) was given intravenously 15 minutes before carrageenan. Male sprague dawley rats weighing between 200 and 210 g were used. Paw edema was monitored for 6 hours. Results express delta change from basal. Each number is the mean+s.e.m. for n=4 rats per group.

[2] = relative potency; cited from earlier work
[3] = cited from earlier work
[4] = relative potency; cited from earlier work; remark: listed apart in the source
iNOS = iNOS immunostaining in paw/joint of collagen-induced arthritis rats; type: in vivo, Lewis rats; conditions: day 35; low doses alone: DEX 0.01 mg/kg or M40403 2 mg/kg
Description: (§1) Immunohistochemical Localization of Nitrotyrosine, PARS, COX-2 and iNOS At day 35, the joints organs were then trimmed, placed in decalcifying solution for 24 hours and 8 μm sections were prepared from paraffin embedded tissues. After deparaffinization, endogenous peroxidase was quenched with 0.3% H2O2 in 60% methanol for 30 minutes. The sections were permeabilized with 0.1% Triton X-100 in PBS for 20 minutes. Non-specific adsorption was minimized by incubating the section in 2% normal goat serum in phosphate buffered saline for 20 minutes. Endogenous biotin or avidin binding sites were blocked by sequential incubation for 15 minutes with avidin and biotin. Sections were incubated overnight with 1) anti-rabbit polyclonal antibody directed at iNOS (1:1000 in PBS, v/v) (DBA, Milan, Italy) or 2) with anti-COX-2 goat policlonal antibody (1:500 in PBS, v/v) or 3) with anti-nitrotyrosine rabbit policlonal antibody (1:1000 in PBS, v/v) or 4) with anti-poly (ADP-Ribose) goat policlonal antibody rat (1:500 in PBS, v/v). Controls included buffer alone or non-specific purified rabbit IgG. Specific labelling was detected with a biotin-conjugated goat anti-rabbit IgG (for nitrotyrosine and iNOS) or with a biotin-conjugated […] and avidin-biotin peroxidase complex. […]

COX-2 = COX-2 immunostaining in paw/joint of collagen-induced arthritis rats; type: in vivo, Lewis rats; conditions: day 35; low doses alone: DEX 0.01 mg/kg or M40403 2 mg/kg
Description: as §1

nitrotyrosine = experiment: Nitrotyrosine immunostaining in paw/joint of collagen-induced arthritis rats; type: in vivo, Lewis rats; conditions: day 35; low doses alone: DEX 0.01 mg/kg or M40403 2 mg/kg
Description: as §1

[5] = Body weight gain in collagen-induced arthritis rats; type: in vivo, Lewis rats; conditions: day 25 to 35; low doses alone: DEX 0.01 mg/kg or M40403 2 mg/kg
Source text: Animals were randomly divided into six groups (n=10 for each group) as follows: […]

PARS = PARS immunostaining in paw/joint of collagen-induced arthritis rats; type: in vivo, Lewis rats; conditions: day 35; low doses alone: DEX 0.01 mg/kg or M40403 2 mg/kg
Description: as §1

Compound	Anti-inflammatory Potency [2]	Duration (T½, Hours) [3] [h]	Na+-retaining Potency [4]	other results
5,10,15,20-tetrakis (2,4,6-trimethyl-3,5-disulfonatophenyl)-porphyrinato iron (III) [FeTMPS]	–	–	–	Paw edema, delta change from basal ([1]; FeTMPS 1 mpk intravenously 15 minutes before carrageenan, 0 h post carrageenan): 0; Paw edema, delta change from basal ([1]; FeTMPS 1 mpk, 1 h post carrageenan): 0.6 ± 0.02; Paw edema, delta change from basal ([1]; FeTMPS 1 mpk, 2 h post carrageenan): 0.9 ± 0.05; Paw edema, delta change from basal ([1]; FeTMPS 1 mpk, 3 h post carrageenan): 1.1 ± 0.01; Paw edema, delta change from basal ([1]; FeTMPS 1 mpk, 4 h post carrageenan): 1.2 ± 0.02; Paw edema, delta change from basal ([1]; FeTMPS 1 mpk, 5 h post carrageenan): 1 ± 0.03; Paw edema, delta change from basal ([1]; FeTMPS 1 mpk, 6 h post carrageenan): 1.3 ± 0.02
C[C@H]1C[C@@H]2[C@H]([C@@H](O)C[C@@]3(C)[C@H]2CC[C@]3(O)C(=O)CO)[C@@]2(C)C=CC(=O)C=C12 [6a-Methyl-prednisolone]	5	12 to 36	0.5	–
C[C@]12CCC(=O)C=C1CC[C@@H]1[C@@H]2[C@@H](O)C[C@@]2(C)[C@H]1CC[C@]2(O)C(=O)CO [Cortisol]	1	8 to 12	1	–
C[C@]12CCC(=O)C=C1CC[C@@H]1[C@@H]2C(=O)C[C@@]2(C)[C@H]1CC[C@]2(O)C(=O)CO [Cortisone]	0.8	–	0.8	–
C[C@]12CCC(=O)C=C1CC[C@H]1[C@@H]3CC[C@](O)(C(=O)CO)[C@@]3(C)C[C@H](O)[C@@]12F [Fludrocortisone]	–	8 to 12	–	–
[Cl-].[Cl-].[Mn+2].c1cc2nc(c1)CN[C@@H]1CCCC[C@H]1NCCN[C@@H]1CCCC[C@H]1NC2 [M40403]	–	–	–	iNOS immunostaining in joint (iNOS): had no effect on iNOS or COX-2 staining; COX-2 immunostaining in joint (COX-2): had no effect on iNOS or COX-2 staining; Nitrotyrosine immunostaining in joint (nitrotyrosine): No significant protective effect; Body weight gain [5]: gained weight in a manner that was similar to CIA rats; also recorded: gained significantly less weight than the normal rats; PARS immunostaining in joint (PARS): No significant protective effect
C[C@]12C=CC(=O)C=C1CC[C@@H]1[C@@H]2[C@@H](O)C[C@@]2(C)[C@H]1CC[C@]2(O)C(=O)CO [Prednisolone]	4	12 to 36	0.8	–
C[C@]12C=CC(=O)C=C1CC[C@@H]1[C@@H]2C(=O)C[C@@]2(C)[C@H]1CC[C@]2(O)C(=O)CO [Prednisone]	–	12 to 36	–	–
C[C@]12C=CC(=O)C=C1CC[C@H]1[C@@H]3C[C@@H](O)[C@](O)(C(=O)CO)[C@@]3(C)C[C@H](O)[C@@]12F [Triamcinolone]	5	12 to 36	0	–
